Measured values from patent US20050038058A1, “Novel compounds and methods for therapy” (Institute of Organic Chemistry and Biochemistry, priority 2001, published 2005).
≈ marks a conversion by molar mass, not a printed value. Like-named read-outs stand apart in the source and are kept apart here. Marks after values point to notes of the source that are not given here.

What was measured:
HIV-2(ROD) [1] = assay: HIV-2(ROD)-induced cytopathicity in MT-4 cell cultures; assay type: cell-based; conditions: Human immunodeficiency virus 2, MT4, read-out: EC50 HIV-2 (ROD) (MT-4)
MSV = assay type: in vivo; conditions: for Number of Mice not Developing a Tumor (percent): intraperitoneal, 5 daily doses, newborn NMRI mice
HIV = assay: Anti-HIV activity across HIV-1 and HIV-2 in CEM and MT-4 cell cultures; assay type: cell-based; conditions: Human immunodeficiency virus 1, MT4; HIV-1 and HIV-2 in CEM and MT-4 cells; read-out: EC50 values for HIV (range over virus/cell systems)
Description: (§1) In vitro antiviral assays. The activity against HIV-1- and HIV-2-induced cytopathicity was examined in MT-4 cell cultures at day 5 post infection and based on the determination of cell viability by trypan blue dye staining or in CEM cell cultures at day 4 to 5 post infection and based on the microscopical examination of virus-induced giant cell formation. HIV-1 and HIV-2 were added at 100 CCID50 to the cell cultures.

HIV-2(ROD) [2] = assay: HIV-2(ROD)-induced cytopathicity in CEM cell cultures; assay type: cell-based; conditions: Human immunodeficiency virus 2, CCRF-CEM, read-out: EC50 HIV-2 (ROD) (CEM)
Procedure, shortened: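 CEM cells infected with 100 CCID50 of HIV-2(ROD) or clinical HIV-1 isolates L1S, L6S, or PMEA-passaged L6S/PMEA. Inhibition of cytopathicity assessed at day 4–5 post infection by microscopic scoring of virus-induced giant cell formation.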

[3] = test system: HIV-1(IIIB) strains containing L100I, K103N, Y181C and Y188H mutations in the RT; assay: HIV-1(IIIB) strains with NNRTI-specific RT mutations in CEM cell cultures; assay type: cell-based; conditions: data not shown
Description: as §1

HIV-1(IIIB) [4] = assay: HIV-1(IIIB)-induced cytopathicity in CEM cell cultures; assay type: cell-based
Procedure, shortened: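 Protection against cytopathicity caused by HIV-1 strain IIIB was measured in CEM cell cultures. The IIIB stock came from supernatants of infected MT-4 cell cultures, and virus was added to the cultures at 100 CCID50. At day 4 to 5 post infection, virus-induced giant cell formation was examined microscopically, and the EC50 was derived from this.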

HIV-1/L6S/PMEA = assay type: cell-based; conditions: measured against the laboratory HIV-1/IIIB strain in CEM cell cultures
Source text: (§2) Viruses. The origins of MSV, HIV type 1 (HIV-1) (strain IIIB and Ba-L), HIV-2 (strain ROD) and FIV (strain Petaluma) have been described previously (Balzarini et al., AIDS 5: 21-28, 1991; De Clercq et al., Proc. Soc. Exp. Biol. Med. 137:590-594, 1971; Egberink et al., Proc. Natl. Acad. Sci. 87:3087-3091, 1990; Hartmann et al., Antiviral Chem. Chemother. 5:13-19, 1994; Popovic et al., Science 224:497-500, 1984). HIV-1(IIIB) and HIV-2(ROD) stocks were obtained from supernatants of virus-infected MT-4 cell cultures. HIV-1BaL was expanded in human primary M/M, whose supernatants were collected, filtered and stored at −80° C. before use. Characteristics of viral stocks used for this study were 2.1×10^8 HIV-RNA genomes/ml (corresponding to 35 ng of p24 antigen) and 5,000 tissue culture infectious doses 50% per ml (TCID50/ml) as assessed by virus titration in other primary M/M cultures. The isolation and characterization of the clinical HIV-1 isolates L1S, L6S and L6S/PMEA has been reported (Thormar et al., Proc. Natl. Acad. Sci. USA 93:3283-3287, 1995; Van Laethem et al., AIDS 15:553-561, 2001). […] HIV-1/L6S/PMEA is the clinical isolate HIV-1/L6S that has been isolated after culturing the virus for 11 passages in the presence of increasing concentrations of PMEA (adefovir).
as §1

HIV-1/L1S = assay type: cell-based; conditions: measured against the laboratory HIV-1/IIIB strain in CEM cell cultures
Source text: as §2, §1

HIV-1/L6S = assay type: cell-based; conditions: measured against the laboratory HIV-1/IIIB strain in CEM cell cultures
Source text: as §2, §1

HIV-1(IIIB) [5] = assay: HIV-1(IIIB)-induced cytopathicity in MT-4 cell cultures; assay type: cell-based; conditions: Human immunodeficiency virus 1, IIIB, MT4; Table 2
[6] = Inhibition of CEM cell growth (cytostatic activity); assay type: cell-based; conditions: human, CEM cells
Procedure, shortened: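 MT-4 cells (5×10^4/well) exposed to compound dilutions for 5 days at 37 °C; CC50 = concentration cutting living cells by 50%, counted microscopically with trypan blue exclusion. CEM cytostatic CC50 defined likewise, by a previously described method.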

HIV-1(IIIB) [7] = assay: HIV-1(IIIB) p24 antigen production in PBL (PHA-stimulated PBMC); assay type: cell-based; conditions: Human immunodeficiency virus 1, IIIB, PBMC
Description: Peripheral blood mononuclear cells (PBMC) from healthy donors were isolated by density centrifugation (Lymphoprep; Nycomed Pharma, AS Diagnostics, Oslo, Norway) and stimulated with phytohemagglutin (PHA) (Sigma Chemical Co., Bornem, Belgium) for 3 days. The activated cells (PHA-stimulated blasts) were washed with PBS and viral infections were done as described by the AIDS clinical trial group protocols. Briefly, PBMCs (2×10^5/200 well) were plated in the presence of serial dilutions of the test compound and were infected with HIV stocks at 1000 CCID50 per mL. At day 4 post-infection, 125 μl of the supernatant of the infected cultures was removed and replaced with 150 μl of fresh medium containing the test compounds at the appropriate concentrations. At 7 days after plating the cells, p24 antigen was detected in the culture supernatant by an enzyme-linked immunosorbent assay (NEN, Paris, France).

[8] = MT-4 cell toxicity (trypan blue exclusion); assay type: cell-based; conditions: human, MT-4 cells; reduction of cell viability; Table 2
Description: Cytostatic and antimetabolic effect of acyclic nucleoside phosphonates in vitro. The assays to examine the inhibition of CEM cell growth by the test compounds have been described previously (Balzarini et al., AIDS 5:21-28, 1991). The 50% cytostatic concentration (CC50) was defined as the concentration of compound that reduced the number of living cells by 50% . To measure MT-4 cell toxicity of the test compounds, 5×10^4 MT-4 cells were incubated in the wells of 96-well microplates in the presence or absence of different concentrations of the test compounds for 5 days at 37° C. The CC50 was then calculated from the number of living cells counted under a microscope by the trypan blue exclusion method.

Toxicity in CrFK cells = assay type: cell-based, feline; conditions: cat, CrFK cells; Table 2
FIV (strain Petaluma) = assay: Anti-FIV assay, p24 antigen in CrFK cells; assay type: cell-based; conditions: Feline immunodeficiency virus, CRFK; Table 2
Description: For the anti-FIV assays, 10^5 CrFK cells were seeded onto 24-well tissue culture plates. Cells were cultured with 2 ml of culture medium/well containing 2.5% of fetal calf serum in the presence of various drug concentrations. The assays were carried out in triplicate. After a 1-hr incubation period at 37° C., cells were infected with FIV. Virus was left in contact with the cultures for 1 day, after which the medium was removed and new medium containing the appropriate drug concentrations was added. After 6 days, the presence of FIV p24 antigen was examined by an antigen capture assay.

Q: With `Nc1cc(OCCOCP(=O)(O)O)nc(N)n1` [Compound 1, 2,4-diamino-6-[2-(phosphonomethoxy)ethoxy]pyrimidine] as the compound, how does the EC50 (HIV-2(ROD) [1]) read?
A: 0.29 µg/mL (≈ 1.1 µM)

Q: And the “Number of Long-Term Survivors (%) (>30 days)” value (“Number … (%) (>30 days)” below) (MSV; 2 mg/kg)?
A: 15%

Q: What about the “Number of Mice not Developing a Tumor (percent)” value (MSV; 2 mg/kg) of the same compound?
A: 5%

Q: What about the “Number … (%) (>30 days)” value (MSV; 8 mg/kg) of the same compound?
A: 89%

Q: And the “Number of Mice not Developing a Tumor (percent)” value (MSV; 8 mg/kg)?
A: 44%

Q: What about the “Number of Mice not Developing a Tumor (percent)” value (MSV; 20 mg/kg) of the same compound?
A: 80%

Q: And the “Number … (%) (>30 days)” value (MSV; 20 mg/kg, premature death not taken into account)?
A: 100%

Q: And the “Number of Mice not Developing a Tumor (percent)” value (MSV; 50 mg/kg)?
A: 84%

Q: What about the “Number … (%) (>30 days)” value (MSV; 50 mg/kg, premature death not taken into account) of the same compound?
A: 100^b %

Q: What about the “Mice protected from tumor formation” value (MSV; 50 and 20 mg/kg) of the same compound?
A: At least 80%

Q: And the EC50 (HIV)?
A: 0.29 to 0.8 µg/mL (≈ 1.1 to 3.03 µM)

Q: What about the EC50 (HIV-2(ROD) [2]) of the same compound?
A: 0.66 ± 0.19 µg/mL (≈ 2.5 µM)

Q: And the “Activity against NNRTI-specific mutant virus strains, in words” value [3]?
A: retained full activity

Q: What about the EC50 (HIV-1(IIIB) [4]; Human immunodeficiency virus 1, CCRF-CEM, HIV-1 (IIIB) in CEM, no addition, Table 3, read-out: EC50 as such) of the same compound?
A: 0.77 ± 0.25 µg/mL (≈ 2.91 µM)

Q: And the EC50 (HIV-1(IIIB) [4]; Human immunodeficiency virus 1, CCRF-CEM, HIV-1 (IIIB) in CEM, Ade 100 μM, read-out: EC50 upon addition of Ade (100 μM))?
A: 0.26 ± 0.16 µg/mL (≈ 0.984 µM)

Q: And the EC50 (HIV-1(IIIB) [4]; Human immunodeficiency virus 1, CCRF-CEM, HIV-1 (IIIB) in CEM, Ado 400 μM, read-out: EC50 upon addition of Ado (400 μM))?
A: 0.63 ± 0.29 µg/mL (≈ 2.38 µM)

Q: What about the EC50 (HIV-1(IIIB) [4]; Human immunodeficiency virus 1, CCRF-CEM, HIV-1 (IIIB) in CEM, Guo 10 μM, read-out: EC50 upon addition of Guo (10 μM)) of the same compound?
A: 0.65 ± 0.21 µg/mL (≈ 2.46 µM)

Q: And the EC50 (HIV-1(IIIB) [4]; Human immunodeficiency virus 1, CCRF-CEM, HIV-1 (IIIB) in CEM, dCyd 1 mM, read-out: EC50 upon addition of dCyd (1 mM))?
A: 0.55 ± 0.35 µg/mL (≈ 2.08 µM)

Q: What about the EC50 (HIV-1(IIIB) [4]; Human immunodeficiency virus 1, CCRF-CEM, HIV-1 (IIIB) in CEM, dThd 10 μM, read-out: EC50 upon addition of dThd (10 μM)) of the same compound?
A: 0.35 ± 0.07 µg/mL (≈ 1.32 µM)

Q: What about the EC50 (HIV-1(IIIB) [4]; Human immunodeficiency virus 1, CCRF-CEM, HIV-1(IIIB)-induced cytopathicity in CEM cell cultures, Table 1, read-out: EC50 HIV-1 (CEM)) of the same compound?
A: 0.8 µg/mL (≈ 3.03 µM)

Q: What about the EC50 (HIV-1(IIIB) [4]; Human immunodeficiency virus 1, IIIB, CCRF-CEM, giant cell formation, mean ±SD of 2 to 4 experiments, Table 2, read-out: EC50 HIV-1 (IIIB) (CEM)) of the same compound?
A: 0.9 ± 0.4 µg/mL (≈ 3.41 µM)

Q: What about the “-Fold Resistance HIV-1/L6S/PMEA” value (HIV-1/L6S/PMEA) of the same compound?
A: 3.6 fold

Q: And the “-Fold Resistance HIV-1/L1S” value (HIV-1/L1S)?
A: 0.8 fold

Q: And the “-Fold Resistance HIV-1/L6S” value (HIV-1/L6S)?
A: 1.5 fold

Q: What about the EC50 (HIV-1(IIIB) [5]) of the same compound?
A: 0.34 ± 0.03 µg/mL (≈ 1.29 µM)

Q: What about the CC50 ([6]; 50% cytostatic concentration, CEM cell proliferation, Table 1, read-out: CC50 (CEM)) of the same compound?
A: 11 µg/mL (≈ 41.6 µM)

Q: And the CC50 ([6]; inhibition of cell proliferation, Table 2, read-out: CC50 CEM)?
A: 11 ± 2 µg/mL (≈ 41.6 µM)

Q: What about the CC50 ([6]; read-out: CC50 for CEM cells) of the same compound?
A: 11 µg/mL (≈ 41.6 µM)

Q: And the EC50 (HIV-1(IIIB) [7]; p24 antigen production, Table 2, read-out: EC50 HIV-1 (IIIB) (PBL))?
A: 0.07 ± 0.02 µg/mL (≈ 0.265 µM)

Q: And the EC50 (HIV-1(IIIB) [7]; read-out: EC50 HIV-1(IIIB) in PBL)?
A: 0.07 µg/mL (≈ 0.265 µM)

Q: What about the CC50 at 5 days [8] of the same compound?
A: 46 ± 7.4 µg/mL (≈ 174 µM)

Q: And the CC50 (Toxicity in CrFK cells)?
A: 11 µg/mL (≈ 41.6 µM)

Q: And the EC50 (FIV (strain Petaluma))?
A: 0.25 ± 0.01 µg/mL (≈ 0.946 µM)
